Assay results: patent US4382939A, “3-[2-(Mono-and dialkylamino)propyl]-1,2,3,4-tetrahydro-5H-[1]benzopyrano[3,4-C]pyridin- 5-ones useful for treating bronchospastic diseases” (Warner Lambert Company, priority 1982, dated 1983)

Legend:
[1] = test system: collapse on exposure to an aerosol of methacholine; test: Anticholinergic test: prolongation of collapse time in conscious guinea pigs exposed to an aerosol of methacholine; assay type: in vivo; details: guinea pig, 25 mg/kg intraperitoneally; 10 minutes methacholine aerosol; Control 1.9 to 2.0
Experimental: The compounds of the invention display anticholinergic properties when tested by the following procedure: Conscious guinea pigs, six at a time, are put into a sealed chamber and exposed for 10 minutes to an aerosol of methacholine. Untreated animals or those treated with vehicle will collapse in 1.9±0.1 minutes. Groups of animals are injected intraperitoneally with 25 mg/kg of test compound and exposed in the chamber under the same conditions. Compounds which prolong the collapse time past that of the control animals are considered active.

[2] = test system: bronchospasm (pilocarpine nitrate); test: Inhibition of pilocarpine-induced bronchospasm in anesthetized dogs (pulmonary mechanics); assay type: in vivo, mongrel dogs; details: for ED50: Canis lupus familiaris, iv, anesthetized dogs, cumulative i.v. doses, pilocarpine-induced bronchospasm, read-out: ID50 Bronchospasm; for Pulmonary Selectivity*: dogs, i.v., >1 indicates more potent as a bronchodilator than as an antisecretory agent
Experimental: (§1) In an additional testing procedure, mongrel dogs of either sex, 10.6 to 15.3 kg, are anesthetized with sodium pentobarbital, 30 mg/kg i.v. and then prepared for the monitoring of pulmonary mechanics. A Buxco pulmonary mechanics computer is used to calculate pulmonary resistance, dynamic compliance, and tidal volume from transpulmonary pressure and flow data. Respiratory rate, heart rate and mean arterial blood pressure are also monitored. The femoral vein is cannulated for the delivery of drugs. Pilocarpine nitrate (0.2 mg/kg/hr) is than infused to induce a bronchospasm and salivary flow. […] Salivary output is collected from a catheterized Wharton's duct at five minute intervals. After salivation has stabilized, 3 control collections are taken at 5 minute intervals followed by a series of cumulative i.v. doses of test compound (1, 3, 10, 30, 100, 300, 1000, 3000, and 10,000 μg/kg) that are injected every 5 minutes for 45 minutes. The percent inhibition of both the bronchospasm and salivation are calculated for each dose with a return to pre-pilocarpine resistance levels or cessation of salivation equal to a 100% inhibition.

[3] = test system: salivation (pilocarpine nitrate); test: Inhibition of pilocarpine-induced salivation in anesthetized dogs; assay type: in vivo, mongrel dogs; details: Canis lupus familiaris, iv, cumulative i.v. doses, pilocarpine-induced salivary flow, read-out: ID50 Salivation
Experimental: as §1

SMILES	(Minutes Protection) [1] [min]	ED50 [2] [mg/kg]	Pulmonary Selectivity* [2]	ED50 [3] [mg/kg]
CCN(CC)C(C)CN1CCc2c(c(=O)oc3ccccc23)C1 (centres unmarked) [H H H Et Et, 3-[2-(Diethylamino)propyl]-1,2,3,4-tetrahydro-5H-[1]benzopyrano[3,4-c]pyridin-5-one]	10.0	0.336	7	2.31
CCNC(C)CN1CCc2c(c(=O)oc3ccccc23)C1 (centres unmarked) [H H H Et H, 3-[2-(Ethylamino)propyl]-1,2,3,4-tetrahydro-5H-[1]benzopyrano[3,4-c]pyridin-5-one]	10.0	0.21	6	1.23
CC(CN1CCc2c(c(=O)oc3ccccc23)C1)N(C)C (centres unmarked) [H H H Me Me, 3-[2-(Dimethylamino)propyl]-1,2,3,4-tetrahydro-5H-[1]benzopyrano[3,4-c]pyridin-5-one]	10.0	0.192	22	4.15
CCN(CC)C(C)CN1CCc2c(c(=O)oc3cc(C)ccc23)C1 (centres unmarked) [H Me H Et Et, 3-[2-(Diethylamino)propyl]-1,2,3,4-tetrahydro-8-methyl-5H-[1]benzopyrano[3,4-c]pyridin-5-one]	6.6	0.111	4.6	0.51
CCN(C)C(C)CN1CCc2c(c(=O)oc3cc(C)ccc23)C1 (centres unmarked) [H Me H Me Et, 3-[2-(Ethylmethylamino)propyl]-1,2,3,4-tetrahydro-8-methyl-5H-[1]benzopyrano[3,4-c]pyridin-5-one]	8.8	0.15	2.2	0.336
Cc1ccc2c3c(c(=O)oc2c1)CN(CC(C)N(C)C)CC3 (centres unmarked) [H Me H Me Me, 3-[2-(Dimethylamino)propyl]-1,2,3,4-tetrahydro-8-methyl-5H-[1]-benzopyrano[3,4-c]pyridin-5-one]	10.0	0.114	3.7	0.421
CCN(CC)C(C)CN1CCc2c(c(=O)oc3cc(OC)c(OC)cc23)C1.Cl.Cl (centres unmarked) [MeO MeO H Et Et, 3-[2-(Diethylamino)propyl]-1,2,3,4-tetrahydro-8,9-dimethoxy-5H-[1]benzopyrano[3,4-c]pyridin-5-one dihydrochloride]	7.8	0.073	3.5	0.257
COc1cc2oc(=O)c3c(c2cc1OC)CCN(CC(C)N(C)C)C3.Cl.Cl (centres unmarked) [MeO MeO H Me Me, 3-[2-(Dimethylamino)propyl]-1,2,3,4-tetrahydro-8,9-dimethoxy-5H-[1]benzopyrano[3,4-c]pyridin-5-one dihydrochloride]	5.2	0.098	4.5	0.441
